Tests used:
[1] = Solubility test in low-polarity solvents (saturated solution, λmax, solubility, εC); format: physicochemical; details: for Solubility: saturated solution
Protocol: The solubility of each dye in n-decane, tetradecane, Isopar M, Isopar G, and decalin was examined in the following manner. Each dye was added to each solvent until a dissolution residue came to remain, and this mixture was subjected to a 30-minute ultrasonic treatment at 30 degrees. The resultant mixture was allowed to stand at 5° C. for 24 hours and then subjected to centrifugal filtration (centrifugal force, 5,200×g) with a 0.1-μm filter using a microcentrifuge. The saturated solution obtained was diluted to an adequate concentration, and the solubility of each dye was calculated from a relationship with an extinction coefficient determined beforehand. Furthermore, the value of the product of the molar extinction coefficient ε (Lmol^−1cm^−1) and the concentration C (molL^−1) of the saturated solution, εC, was determined.
Sudan Black B (manufactured by Tokyo Kasei Kogyo Co., Ltd.), which is a commercial oil-soluble black dye, was added to n-decane until a dissolution residue came to remain, and this mixture was subjected to a 30-minute ultrasonic treatment at 30 degrees. The resultant mixture was allowed to stand at 5° C. for 24 hours and then subjected to centrifugal filtration (centrifugal force, 5,200×g) with a 0.1-μm filter using a microcentrifuge. The saturated n-decane solution obtained was diluted to an adequate concentration, and the solubility of the dye was calculated from a relationship with an extinction coefficient determined beforehand.

[2] = Light fastness test (retention of dye after 2 hours of high-pressure mercury lamp irradiation); format: physicochemical; details: 1 mg in 250 mL, 2 hours irradiation
Protocol: The light fastness of each dye was examined in the following manner. One milligram of each dye was dissolved in 250 mL of each of n-decane, tetradecane, Isopar M, and Isopar G, and the solution was irradiated with light for 2 hours using photoreaction apparatus UVL-400HA (400-W high-pressure mercury lamp), manufactured by Riko-Kagaku Sangyo Co., Ltd. During the irradiation, the vessel was cooled with a coolant to keep the internal temperature at 10-30° C. The retention of the dye was determined through the following calculation to evaluate the light fastness. Retention of dye=(absorbance at absorption-maximum wavelength after irradiation)/(absorbance at absorption-maximum wavelength before irradiation)

[3] = n-decane, stood at 5° C. for 24 hours, 0.1-μm filter
[4] = n-decane, 400-W high-pressure mercury lamp

SMILES | εC ([1]; Isopar G) [cm⁻¹] | λmax (absorption-maximum wavelength) ([1]; Isopar G solution) [nm] | Solubility ([1]; Isopar G) [%] | εC ([1]; Isopar M) [cm⁻¹] | λmax (absorption-maximum wavelength) ([1]; Isopar M solution) [nm] | Solubility ([1]; Isopar M) [%] | εC ([1]; decalin) [cm⁻¹] | λmax (absorption-maximum wavelength) ([1]; decalin solution) [nm] | Solubility ([1]; decalin) [%] | εC (molar extinction coefficient × concentration of saturated solution) ([1]; n-decane) [cm⁻¹] | λmax (absorption-maximum wavelength) ([1]; n-decane solution) [nm] | Solubility [1, 3] [%] | εC ([1]; tetradecane) [cm⁻¹] | λmax (absorption-maximum wavelength) ([1]; tetradecane solution) [nm] | Solubility ([1]; tetradecane) [%] | Light fastness: retention of dye ([2]; Isopar G) [%] | Light fastness: retention of dye ([2]; Isopar M) [%] | Light fastness: retention of dye [2, 4] [%] | Light fastness: retention of dye ([2]; tetradecane) [%]
CCCCC(CC)CN(CC(CC)CCCC)c1ccc(/N=N/c2snc(CC)c2C#N)c(C)c1 (stereo not drawn) [Dye 4] | 4900 | 526 | 7.4 | 6000 | 530 | 8.51 | 5200 | 534 | 6.5 | 5700 | 527 | 6.6 | 5200 | 530 | 6.8 | 98 | 95 | 96 | 82
CCCCC(CC)CN(CC(CC)CCCC)c1ccc(/N=N/c2sc(C(=O)OCC)c(C)c2C(=O)OCC)c(NC(=O)CC)c1 (stereo not drawn) [Dye 7] | 6000 | 535 | 10 | 6300 | 536 | 10 |  |  |  | 5700 | 536 | 10.3 | 5400 | 538 | 9.7 | 98 | 87 | 98 | 81
CCCCC(CC)CN(CC(CC)CCCC)c1ccc(N=Nc2snc(CC)c2C#N)c(NC(C)=O)c1 (stereo not drawn) [Dye 10] | 18600 | 542 | 20 | 18600 | 542 | 20 | 6600 | 546 | 6.7 | 17000 | 543 | 20 | 16700 | 544 | 19 |  |  | 99 | 
